Experimental findings from patent publication US8268814B2, “Substituted sulfonamide compounds” (Gruenenthal GmbH, priority 2008, dated 2012) are described below.

Structures are written as SMILES.

As usually defined, the inhibition is the change of the read-out against control, counted positive when it falls.

The target of test [1] is T1, B1R receptor of the rat (rB1R) (Rattus norvegicus, UniProt P97583).
T1 construct: expressed in transfected cells; host or cells: CHO K1 cells (Chinese hamster ovary), stably transfected
T1 sequence (P97583 1-337): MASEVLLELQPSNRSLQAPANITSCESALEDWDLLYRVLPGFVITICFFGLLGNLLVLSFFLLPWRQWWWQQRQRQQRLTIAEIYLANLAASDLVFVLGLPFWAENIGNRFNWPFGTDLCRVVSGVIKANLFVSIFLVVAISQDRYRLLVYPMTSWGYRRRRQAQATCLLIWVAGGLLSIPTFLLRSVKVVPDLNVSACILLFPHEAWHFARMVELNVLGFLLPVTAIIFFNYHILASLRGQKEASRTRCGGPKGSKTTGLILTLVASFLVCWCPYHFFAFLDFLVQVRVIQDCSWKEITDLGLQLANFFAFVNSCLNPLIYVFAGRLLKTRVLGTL
In words: Functional FLIPR Ca2+ assay on the bradykinin 1 receptor, rat (rB1R CHO K1 cells). The test is classed as cell-based. To be noted: test substance 10 μM; CHO K1 cells transfected with rat B1R gene; agonist Des-Arg9-bradykinin at EC80; % inhibition compared with maximum achievable inhibition; read-out: B1R antagonism, rat [10 μM] % inhibition. In a few lines:
(§1)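 Stably transfected CHO K1 cells expressing human or rat B1R, Fluo-4-loaded, Ca2+ influx read by FLIPR (peak fluorescence). Compounds (10 μM for % activation) preincubated 10-20 min, then EC80 agonist added: Lys-Des-Arg9-bradykinin for human, Des-Arg9-bradykinin for rat; % inhibition versus maximal inhibition, IC50 from concentration series.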

In test [2] the target is T2, human B1R receptor (hB1R) (Homo sapiens, UniProt P46663).
T2 construct: expressed in transfected cells; host or cells: CHO K1 cells (Chinese hamster ovary), stably transfected
T2 sequence (P46663 1-353): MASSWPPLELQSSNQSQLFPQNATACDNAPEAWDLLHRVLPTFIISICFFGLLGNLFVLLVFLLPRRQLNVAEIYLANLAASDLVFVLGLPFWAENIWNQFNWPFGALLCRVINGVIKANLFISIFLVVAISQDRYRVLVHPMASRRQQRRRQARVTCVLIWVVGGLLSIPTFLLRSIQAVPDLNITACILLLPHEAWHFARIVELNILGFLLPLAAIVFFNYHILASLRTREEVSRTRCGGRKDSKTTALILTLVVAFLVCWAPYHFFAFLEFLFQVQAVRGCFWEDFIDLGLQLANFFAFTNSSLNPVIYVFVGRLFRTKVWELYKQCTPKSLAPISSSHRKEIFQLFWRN
Kind of test: Functional FLIPR Ca2+ assay on the bradykinin 1 receptor, human (hB1R CHO K1 cells). It counts as cell-based. To be noted: test substance 10 μM; CHO K1 cells transfected with human B1R gene; agonist Lys-Des-Arg9-bradykinin at EC80; % inhibition compared with maximum achievable inhibition; read-out: B1R antagonism, human (10 μM] % inhibition. In a few lines: as §1

As to `COc1cc(C)c(S(=O)(=O)N2CCCCC2COCC(=O)N2CCc3nc(-c4ccncc4)sc3C2)c(C)c1` (stereo not drawn) [Example 48, 2-((1-(4-methoxy-2,6-dimethylphenylsulfonyl)piperidin-2-yl)methoxy)-1-(2-(pyridin-4-yl)-6,7-dihydrothiazolo[5,4-c]pyridin-5(4H)-yl)ethan-1-one], the inhibition at 10 µM in test [1] was 94%; in test [2], 100%.

In the case of `COc1cc(C)c(S(=O)(=O)N(C)CCOCC(=O)N2CCc3nc(-c4ccncc4)sc3C2)c(C)c1` [Example 49, 4-methoxy-N,2,6-trimethyl-N-(2-(2-oxo-2-(2-(pyridin-4-yl)-6,7-dihydrothiazolo[5,4-c]pyridin-5(4H)-yl)ethoxy)ethyl)benzenesulfonamide], the inhibition at 10 µM in test [1] was determined as 95%; in test [2] it was 99%.

`COc1cc(C)c(S(=O)(=O)N2CCCCC2COCC(=O)N2CCc3sc(CN4CCN(C)CC4)cc3C2)c(C)c1` (stereo not drawn) [Example 50, 2-((1-(4-methoxy-2,6-dimethylphenylsulfonyl)piperidin-2-yl)methoxy)-1-(2-((4-methylpiperazin-1-yl)methyl)-6,7-dihydrothieno[3,2-c]pyridin-5(4H)-yl)ethan-1-one]: the inhibition at 10 µM in test [1] was 102%; in test [2], 100%.

For `COc1cc(C)c(S(=O)(=O)N(C)CCOCC(=O)N2CCc3sc(CN4CCN(C)CC4)cc3C2)c(C)c1` [Example 51, 4-methoxy-N,2,6-trimethyl-N-(2-(2-(2-((4-methylpiperazin-1-yl)methyl)-6,7-dihydrothieno[3,2-c]pyridin-5(4H)-yl)-2-oxoethoxy)ethyl)benzenesulfonamide], the inhibition at 10 µM in test [1] stood at 103%; in test [2] it was 100%.

For the compound `COc1cc(C)c(S(=O)(=O)N2CCCCC2CCC(=O)N2CCc3nc(-c4ccncc4)sc3C2)c(C)c1` (stereo not drawn) [Example 52, 3-(1-(4-methoxy-2,6-dimethylphenylsulfonyl)piperidin-2-yl)-1-(2-(pyridin-4-yl)-6,7-dihydrothiazolo[5,4-c]pyridin-5(4H)-yl)propan-1-one], the inhibition at 10 µM in test [1] stood at 95%; in test [2], 76%.

Take `COc1cc(C)c(S(=O)(=O)N2CCCCC2CCCC(=O)N2CCc3nc(-c4ccncc4)sc3C2)c(C)c1` (stereo not drawn) [Example 53, 4-(1-(4-methoxy-2,6-dimethylphenylsulfonyl)piperidin-2-yl)-1-(2-(pyridin-4-yl)-6,7-dihydrothiazolo[5,4-c]pyridin-5(4H)-yl)butan-1-one]: the inhibition at 10 µM in test [1] stood at 98%; in test [2] it was 96%.

For `O=C(CC1CCCCN1S(=O)(=O)c1cccc(C(F)(F)F)c1)N1CCc2sccc2C1c1ccncc1` (stereo not drawn) [Example 54, 1-(4-pyridin-4-yl-4,5,6,7-tetrahydro-thieno[3,2-c]pyridin-5-yl)-2-[1-[[3-(trifluoromethyl)phenyl]sulfonyl]-piperidin-2-yl]-ethanone], the values for the inhibition at 10 µM in test [1] and in test [2] were 101% and 16%, respectively.

As to `Cc1cc(S(=O)(=O)N2CCCCC2CCC(=O)N2CCc3sccc3C2c2ccncc2)c(C)cc1Cl` (stereo not drawn) [Example 55, 3-[1-[(4-chloro-2,5-dimethyl-phenyl)sulfonyl]-piperidin-2-yl]-1-(4-pyridin-4-yl-4,5,6,7-tetrahydro-thieno[3,2-c]pyridin-5-yl)-propan-1-one], the results for the inhibition at 10 µM in test [1] and in test [2] were 103% and 88%, respectively.

`Cc1cccc(Cl)c1S(=O)(=O)N(CCOCC(=O)N1CCc2sc(CN3CCC3)cc2C1)C1CC1` [Example 56, N-[2-[2-[2-(Azetidin-1-yl-methyl)-4,5,6,7-tetrahydro-thieno[3,2-c]pyridin-5-yl]-2-oxo-ethoxy]-ethyl]-2-chloro-N-cyclopropyl-6-methyl-benzenesulfonic acid amide]: the inhibition at 10 µM is 105% in test [1] and 100% in test [2].

In the case of `Cc1cccc(Cl)c1S(=O)(=O)N(CCOCC(=O)N1CCc2sc(CN3CC(F)(F)C3)cc2C1)C1CC1` [Example 57, 2-Chloro-N-cyclopropyl-N-[2-[2-[2-[(3,3-difluoro-azetidin-1-yl)-methyl]-4,5,6,7-tetrahydro-thieno[3,2-c]pyridin-5-yl]-2-oxo-ethoxy]-ethyl]-6-methyl-benzenesulfonic acid amide], the figures for the inhibition at 10 µM in test [1] and in test [2] were 99% and 100%, respectively.

As for `COc1cc(C)c(S(=O)(=O)N2CCCC[C@H]2COCC(=O)N2CCc3nc(CN4CCCCC4)sc3C2)c(C)c1` [Example 58, 2-[[(2S)-1-[(4-Methoxy-2,6-dimethyl-phenyl)sulfonyl]-piperidin-2-yl]-methoxy]-1-[2-(piperidin-1-yl-methyl)-4,5,6,7-tetrahydro-thiazolo[5,4-c]pyridin-5-yl]-ethanone], the inhibition at 10 µM in test [1] is 103%; in test [2] it was 100%.

Consider `Cc1cccc(Cl)c1S(=O)(=O)N1CCCC[C@H]1COCC(=O)N1CCc2sc(CN3CCCCC3)cc2C1` [Example 59, 2-[[(2S)-1-[(2-chloro-6-methyl-phenyl)sulfonyl]-piperidin-2-yl]-methoxy]-1-[2-(piperidin-1-yl-methyl)-4,5,6,7-tetrahydro-thieno[3,2-c]pyridin-5-yl]-ethanone], for which the inhibition at 10 µM came to 104% in test [1] and 100% in test [2].

For the compound `Cc1cccc(Cl)c1S(=O)(=O)N(CCOCC(=O)N1CCc2sc(CN3CCCCC3)cc2C1)C1CC1` [Example 60, 2-chloro-N-cyclopropyl-6-methyl-N-[2-[2-oxo-2-[2-(piperidin-1-yl-methyl)-4,5,6,7-tetrahydro-thieno[3,2-c]pyridin-5-yl]-ethoxy]-ethyl]-benzenesulfonic acid amide], the inhibition at 10 µM in test [1] was 106%; in test [2] it was 100%.

On to `COc1cc(C)c(S(=O)(=O)N2c3ccccc3CC[C@H]2COCC(=O)N2CCc3sc(CN4CCCCC4)cc3C2)c(C)c1` [Example 61, 2-[[(2S)-1-[(4-methoxy-2,6-dimethyl-phenyl)sulfonyl]-1,2,3,4-tetrahydro-quinolin-2-yl]-methoxy]-1-[2-(piperidin-1-yl-methyl)-4,5,6,7-tetrahydro-thieno[3,2-c]pyridin-5-yl]-ethanone], for which the inhibition at 10 µM in test [1] came out at 106%; in test [2], 100%.

For the compound `COc1cc(C)c(S(=O)(=O)N2CCCC[C@H]2COCC(=O)N2CCc3sc(CN4CCCC4)cc3C2)c(C)c1` [Example 62, 2-[[(2S)-1-[(4-methoxy-2,6-dimethyl-phenyl)sulfonyl]-piperidin-2-yl]-methoxy]-1-[2-(pyrrolidin-1-yl-methyl)-4,5,6,7-tetrahydro-thieno[3,2-c]pyridin-5-yl]-ethanone], the inhibition at 10 µM was 107% in test [1] and 100% in test [2].

In the case of `COc1cc(C)c(S(=O)(=O)N2CCC[C@H]2COCC(=O)N2CCc3sc(CN4CCCCC4)cc3C2)c(C)c1` [Example 63, 2-[[(2S)-1-[(4-methoxy-2,6-dimethyl-phenyl)sulfonyl]-pyrrolidin-2-yl]-methoxy]-1-[2-(piperidin-1-yl-methyl)-4,5,6,7-tetrahydro-thieno[3,2-c]pyridin-5-yl]-ethanone], the inhibition at 10 µM in test [1] worked out at 106%; in test [2] it was 99%.

In the case of `COc1cc(C)c(S(=O)(=O)N2c3ccccc3CC[C@H]2COCC(=O)N2CCc3onc(-c4ccncc4)c3C2)c(C)c1` [Example 125, 2-[[(2S)-1-[(4-Methoxy-2,6-dimethyl-phenyl)sulfonyl]-1,2,3,4-tetrahydro-quinolin-2-yl]-methoxy]-1-(3-pyridin-4-yl-4,5,6,7-tetrahydro-isoxazolo[4,5-c]pyridin-5-yl)-ethanone], the inhibition at 10 µM amounted to 102% in test [1] and 75% in test [2].

As to `COc1cc(C)c(S(=O)(=O)N2CCCCC2COCC(=O)N2CCc3onc(CN4CCCCC4)c3C2c2ccccc2)c(C)c1` (stereo not drawn) [Example 126, 2-((1-(4-Methoxy-2,6-dimethylphenylsulfonyl)piperidin-2-yl)methoxy)-1-(4-phenyl-3-(piperidin-1-ylmethyl)-6,7-dihydroisoxazolo[4,5-c]pyridin-5(4H)-yl)ethanone], the results for the inhibition at 10 µM in test [1] and in test [2] were 104% and 90%, respectively.
